Experiments:
Hep G2 cells [1] = test: In vitro toxicity (CellTiter-Glo cell viability), Hep G2; format: cell-based; conditions: cirRNA (SEQ ID NO: 1) LNPs; Hep G2 cells;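 note: percent of untreated cells luminescence signal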
Description: (§1) RAW 264.7 and Hep G2 cells were transfected with 1 μg/mL RNA-LNPs. At 72 hours post transfection, cell viability was determined with the CellTiter-Glo® reagent kit, according to the kit protocol, measured by a luminometer.
(§2) The cell viability was calculated according to the following formula: […]

RAW 264.7 cells [2] = test: In vitro toxicity (CellTiter-Glo cell viability), RAW 264.7; format: cell-based; conditions: cirRNA (SEQ ID NO: 1) LNPs; RAW 264.7 cells;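 note: percent of untreated cells luminescence signal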
Description: as §1, §2

BALB/C mice = test: In vivo expression, whole-body luminescence (IVIS); conditions: cirRNA (SEQ ID NO: 1) LNPs, BALB/C mice
Description: 6-8 week old, female BALB/C mice were injected with 0.05 mg*kg-1 of RNA-LNPs encoding for firefly-luciferase by intravenous injection. At 6 hours post injection, animals were intraperitoneally injected with 15 mg/ml of Luciferin substrate and whole-body luminescence was determined by a bioluminescent in vivo imaging system (IVIS).

[3] = RNA encapsulation efficacy by Quant-IT Ribogreen kit; format: physicochemical; conditions: LNP with cirRNA (SEQ ID NO: 1)
Description: (§3) Ionizable lipid, DSPC, Cholesterol and DMG-PEG 2000 were mixed at a molar ratio of 50:10:38.5:1.5 in absolute ethanol. Circular RNA and linear mRNA payloads were suspended in 25 mM Acetate Buffer (pH 4.5). To form LNPs, three volumes of luciferase encoding RNA, in the form of cirRNA (SEQ ID NO:1) and mRNA (SEQ ID NO:2) respectively, were mixed with one volume of lipids in ethanol solution by microfluidic mixing with the Nanoassemblr Ignite (Precision Nanosystems) at a flow rate of 12 ml/min. The molar ratio of ionizable lipid to ribonucleotide was 15 or 6. The final lipid concentration in solution ranged from 1.5 mM to 6 mM. After encapsulation, the particles were dialyzed twice against PBS.
(§4) The LNP size and polydispersity index (PDI), determined by dynamic light scattering (DLS), and zeta potential were measured by a Zetasizer machine (Malvern). RNA concentration and encapsulation efficacy were analyzed by the Quant-IT Ribogreen kit by calculating the percentage encapsulation at 100%−(RNA-LNPs/RNA-LNPs with Triton X-100).

Hep G2 cells [4] = test: In vitro expression of firefly-luciferase, Hep G2; format: cell-based; conditions: cirRNA (SEQ ID NO: 1) LNPs; firefly-luciferase luminescence; Hep G2 cells
Description: (§5) RAW 264.7 and Hep G2 cells were transfected with 100 ng/mL of RNA-LNPs encoding for firefly-luciferase. At 72 hours post transfection, the cells were washed and lysed. The luciferase expression was determined in the cell lysates with the luciferase assay reagent kit (Promega), according to the kit protocol, luciferase activity was measured by a luminometer.

[5] = LNP size and polydispersity index (PDI) by dynamic light scattering; format: physicochemical; conditions: LNP with cirRNA (SEQ ID NO: 1); for Size: in nm (unit assumed)
Description: as §3, §4

[6] = LNP zeta potential (Zetasizer); format: physicochemical; conditions: LNP with cirRNA (SEQ ID NO: 1)
Description: as §3, §4

RAW 264.7 cells [7] = test: In vitro expression of firefly-luciferase, RAW 264.7; format: cell-based; conditions: cirRNA (SEQ ID NO: 1) LNPs; firefly-luciferase luminescence; RAW 264.7 cells
Description: as §5

| Compound | In vitro Viability HepG2 (Hep G2 cells [1]) [%] | In vitro Viability RAW (RAW 264.7 cells [2]) [%] | In vivo Expression (Whole Body) (BALB/C mice) | Encapsulation Efficiency % [3] [%] | In vitro Expression HepG2 (Hep G2 cells [4]) | PDI [5] | Size [5] | Zeta (mV) [6] [mV] | In vitro Expression RAW (RAW 264.7 cells [7]) |
| --- | --- | --- | --- | --- | --- | --- | --- | --- | --- |
| CCCCC/C=C\C/C=C\CCCCCCCCN(CCCCCCCC(=O)OC(CCCCCCCC)CCCCCCCC)CCOC(=O)NCCN1CCOCC1 [Lipid 134, heptadecan-9-yl 8-((2-(((2-morpholinoethyl)carbamoyl)oxy)ethyl)((9Z,12Z)-octadeca-9,12-dien-1-yl)amino)octanoate] | 13 | 84 | 8.93E+05 | 90 | 3.17E+04 | 0.043 | 89.71 | −8.698 | 5.25E+04 |
| CCCCCCCCCC(=O)OCCCCCCCN(CCCCCCCCOC(=O)C(CCCCCC)CCCCCCCC)CCOC(=O)NCCN1CCN(C)CC1 (stereo not drawn) [Lipid 200] | 103 | 0 | 6.79E+05 | 95 | 4.46E+05 | 0.2967 | 82.06 | 7.27 | 4.45E+04 |
| CCCCCCCCC(CCCCCCCC)OC(=O)CCCCCCCN(CCCCCCCCOC(=O)C(CCCCCC)CCCCCCCC)CCOC(=O)NCCN1CCCCC1 (stereo not drawn) [Lipid 149, 8-((8-(heptadecan-9-yloxy)-8-oxooctyl)(2-(((2-(piperidin-1-yl)ethyl)carbamoyl)oxy)ethyl)amino)octyl 2-hexyldecanoate] | 123 | 100 | 6.07E+07 | 88 | 2.08E+05 | 0.02962 | 71.14 | 9.196 | 1.91E+04 |
| CCCCCCCCCC(=O)OCCCCCCCN(CCCCCCCOC(=O)CCCCCCCCC)CCOC(=O)NCCN1CCN(C)CC1 [Lipid 178] | 99 | 92 | 1.31E+06 | 95 | 6.17E+04 | 0.1534 | 61.85 | 16.19 | 1.31E+03 |
| CCCCCCCCC(CCCCCCCC)OC(=O)CCCCCCCN(CCCCCCCCOC(=O)C(CCCCCC)CCCCCCCC)CCCOC(=O)NCCc1ncc[nH]1 (stereo not drawn) [Lipid 349] | 90 | 87 | 1.01E+07 | 97 | 2.42E+04 | 0.1452 | 75.85 | 0.02482 | 7.58E+03 |
| CCCCCCCCCCC(CCCCCCCC)COC(=O)CCCCCN(CCCCCC(=O)OCC(CCCCCCCC)CCCCCCCCCC)CCCOC(=O)NCCNC(C)C (stereo not drawn) [Lipid 368] | 68 | 67 | 4.18E+06 | 92 | 1.22E+06 | 0.2875 | 130.2 | 3.421 | 1.18E+05 |
| CCCCC/C=C\C/C=C\CCCCCCCCN(CCCCCC(=O)OCC(CCCCCCCC)CCCCCCCCCC)CCOC(=O)NCc1ncc[nH]1 (stereo not drawn) [Lipid 76, 2-octyldodecyl 6-((2-((((1H-imidazol-2-yl)methyl)carbamoyl)oxy)ethyl)((9Z,12Z)-octadeca-9,12-dien-1-yl)amino)hexanoate] | 121 | 86 | 2.55E+05 | 96 | 1.22E+04 | 0.1484 | 137.8 | 0.03131 | 5.53E+02 |
| CCCCCCCCCCCOC(=O)CCCCCN(CCCCCCCCOC(=O)C(CCCCCC)CCCCCCCC)CCOC(=O)NCc1ncc[nH]1 (stereo not drawn) [Lipid 221] | 87 | 83 | 1.79E+07 | 91 | 2.82E+05 | 0.1852 | 65.7 | −1.368 | 5.03E+05 |
